Laboratory results reported in patent US20050282814A1, “Vasculostatic agents and methods of use thereof” (TargeGen, Inc., priority 2002, published 2005).

How the values were obtained:
[1] = test system: VEGF-induced edema; assay: Miles assay, VEGF-induced edema; assay type: in vivo, Sprague-Dawley rats; conditions: general statement in description
Procedure: A rodent model of vascular edema, the Miles assay, was used to screen compounds for their ability to inhibit VEGF-induced edema.
Sprague-Dawley rats were first injected IV with vehicle alone or test agent, followed by IV injection of Evans blue dye, followed by intradermal injections of saline and VEGF (200 ng/injection site) along both shaved flanks. After 45 min, intradermal injection sites were photographed and then scored by a blinded observer for extravasation of Evans blue dye into the dermis (dermal bluing) according to a 4 point scoring system (3=maximal bluing, ≧75% of response in vehicle-treated animals; 2=medium bluing, >25% but <75% of vehicle-treated animals; 1=minimal bluing, ≦25% of vehicle-treated animals; 0=bluing equivalent to saline injection sites on same animal). Individual scores for 4 injection sites (from 2 separate animals) were summed and are shown as a scale of 0-12, with a lower score indicating the greater anti-edema activity; note that all vehicle-treated groups score a value of 12, based on the scoring system outlined above.

[2] = test system: acute myocardial infarct; assay: Rat acute myocardial infarct model (60 min LAD occlusion, reperfusion); assay type: in vivo, Sprague-Dawley rats; conditions: rat
Procedure: A rodent model of acute myocardial infarct, in which the proximal left anterior descending coronary artery (LAD) is occluded for 60 min followed by reperfusion, was used to determine whether test agents reduced infarct size at 24 hours.
Myocardial infarcts were created in Sprague-Dawley rats (200-300 g body weight) by a 60 min occlusion of the LAD followed by LAD reperfusion. At 90 min post-reperfusion, either vehicle alone or test agents were injected IV. At 24 hr post-treatment, the ischemic zone (area at-risk, AAR) was delineated by re-ligation of the LAD followed by IV injection of alkali blue dye, after which hearts were sectioned along the short axis and stained using triphenyltetrazolium chloride to delineate viable from infarcted myocardium. Photographic images were then analyzed using morphometric software to calculate infarct area as a percent of the at-risk area.
The following studies were performed as described above, except that the timing of 3-[2,4-diamino-6-(3-hydroxyphenyl)pteridin-7-yl] phenol dihydrochloride salt administration (at 0.1 mg/kg) was varied. In one group, 3-[2,4-diamino-6-(3-hydroxyphenyl)pteridin-7-yl] phenol dihydrochloride salt was administered at both 60 and 240 min post-occlusion.
In a porcine MI model (90 min of LAD occlusion followed by complete reperfusion), a single 0.3 mg/kg IV bolus delivered 30 min post-reperfusion reduced infarct size by […] vs. controls (40% vs. 56%, N=12-13, P=0.03).

[3] = target: T1, human p120γ subunit of PI3K (Homo sapiens, UniProt P48736); assay: PI3K p120γ enzymatic activity at two concentrations (Upstate Group); assay type: biochemical; conditions: 100% = no inhibition, 0% = complete inhibition
T1 construct: Upstate Group, Charlottesville, Va; (ran the assay under contract)
T1 sequence (P48736 whole entry): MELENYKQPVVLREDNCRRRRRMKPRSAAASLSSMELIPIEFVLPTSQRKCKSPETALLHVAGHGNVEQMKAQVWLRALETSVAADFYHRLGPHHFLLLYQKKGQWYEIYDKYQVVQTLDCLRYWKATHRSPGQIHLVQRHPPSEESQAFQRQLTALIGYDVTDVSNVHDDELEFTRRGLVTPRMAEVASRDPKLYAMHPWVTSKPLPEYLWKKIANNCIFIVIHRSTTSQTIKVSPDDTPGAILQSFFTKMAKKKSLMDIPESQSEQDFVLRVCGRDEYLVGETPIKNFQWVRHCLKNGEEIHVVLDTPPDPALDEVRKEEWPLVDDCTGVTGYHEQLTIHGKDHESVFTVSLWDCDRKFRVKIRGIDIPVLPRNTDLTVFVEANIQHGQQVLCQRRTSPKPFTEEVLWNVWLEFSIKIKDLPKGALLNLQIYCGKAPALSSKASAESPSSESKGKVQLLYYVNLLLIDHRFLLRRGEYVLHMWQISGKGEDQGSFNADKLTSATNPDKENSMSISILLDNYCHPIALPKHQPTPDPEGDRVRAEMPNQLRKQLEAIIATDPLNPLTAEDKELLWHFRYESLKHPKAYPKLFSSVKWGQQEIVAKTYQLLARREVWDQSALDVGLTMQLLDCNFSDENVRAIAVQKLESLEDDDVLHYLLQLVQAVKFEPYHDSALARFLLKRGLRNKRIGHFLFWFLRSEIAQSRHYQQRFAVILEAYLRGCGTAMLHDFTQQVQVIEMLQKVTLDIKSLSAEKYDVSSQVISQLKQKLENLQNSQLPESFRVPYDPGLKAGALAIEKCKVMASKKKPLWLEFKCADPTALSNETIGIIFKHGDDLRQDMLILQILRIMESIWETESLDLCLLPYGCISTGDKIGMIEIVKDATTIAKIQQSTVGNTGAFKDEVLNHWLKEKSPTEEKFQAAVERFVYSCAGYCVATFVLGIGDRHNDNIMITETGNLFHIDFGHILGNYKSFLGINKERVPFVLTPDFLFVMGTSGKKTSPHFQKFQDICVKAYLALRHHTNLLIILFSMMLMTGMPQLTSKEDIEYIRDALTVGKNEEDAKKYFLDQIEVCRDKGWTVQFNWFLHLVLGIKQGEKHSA
Procedure: The ability of compounds to inhibit the activity of PI3K kinase was determined using biochemical assays. In a first assay, compounds were tested at two concentrations (0.5 and 5 μM) for their ability to inhibit enzymatic activity of the human p120γ subunit of PI3K (the assay being performed under contract by Upstate Group, Charlottesville, Va.).

[4] = test system: VEGF-induced Akt kinase phosphorylation; assay: VEGF-induced Akt phosphorylation in lung, Western blot; assay type: in vivo, Sprague Dawley rats
Procedure: The ability of compounds to impact PI3K activity in vivo was assessed by examining compound influence on vascular endothelial growth factor (VEGF)-induced Akt kinase phosphorylation (VEGF stimulation being an inducer of PI3K activity, and Akt kinase being a direct target of PI3K). Sprague Dawley rats were first injected intravenously (iv) with either vehicle or test compound at 5 mgfkg, and then 30, 60 or 120 min later injected iv with VEGF. Five minutes later, lungs were harvested and used to generate tissue lysates, which were then probed for phosphorylated Akt using Western blot technology; non-phosphorylated Akt was also probed in the same blots as a loading control. In other studies, test compounds was dosed at either 0.5 or 5 mg/kg, and VEGF delivered 60 min later, in order to assess the dose-response relationship of a compound's activities.

[5] = test system: dextran-induced inflammatory edema; assay: Dextran-induced paw inflammatory edema; assay type: in vivo, Sprague Dawley rats; conditions: 5 mg/kg iv 30 min before dextran; 3 hours
Procedure: (§1) In order to determine the influence of compounds on the development of inflammation, Sprague Dawley rats were first injected intravenously with either vehicle or test compound at 5 mg/kg, and then 30 min later either PBS (as a control), dextran or platelet activating factor (PAF) was injected into the plantar surface of the hindlimbs, dextran and PAF being known to induce localized inflammatory responses marked by edema. Three hours later, paw dimensions were measured using a caliper and paw volumes calculated; data are shown as the increase in paw volume (mm^3) as compared to controls (paws injected with PBS).

[6] = test system: PAF-induced inflammatory edema; assay: PAF-induced paw inflammatory edema; assay type: in vivo, Sprague Dawley rats; conditions: 5 mg/kg iv 30 min before PAF; 3 hours
Procedure: as §1

[7] = test system: B 16 melanoma cells; assay: B16 melanoma lung metastases, effect on IL-2 anti-tumor activity; assay type: in vivo, C57 mice; conditions: 100,000 U IL-2 and/or compound I.P. every 8 hours for 5 days; compound D 1 mg/kg range, compound E 0.1 mg/kg range
Procedure: Invention compound concentrations are listed in parenthesis in mg/kg while IL-2 concentration is given in parenthesis kilounits.
Syngeneic B 16 melanoma cells were injected I.V. in order to establish lung metastases in C57 mice. Beginning 10 days after cells were injected, 100,000 U of IL-2 and/or indicated invention compounds were given I.P. every 8 hours for 5 days. Animals were sacrificed at day 18, lungs were collected and scored using image analysis software. N=5/group, p<0.02. […] Invention compound concentrations are listed in parenthesis in mg/kg while IL-2 concentration is given in parenthesis kilounits.

[8] = test system: CTLL2; assay: IL-2 dependent T-cell proliferation, XTT assay; assay type: cell-based, mouse; conditions: 96 hours, 50 pg human recombinant IL-2; compound E: in the therapeutic range (<1 μM)
Procedure: An IL-2 dependent […] T cell line, CTLL2, was used to evaluate IL-2 dependent proliferation over 96 hours in the presence of 50 pg of human recombinant IL-2 (R&D Systems) and the indicated compounds using the XTT assay.

[9] = test system: ARDS-induced edema; assay: Oleic acid induced ARDS lung edema, wet/dry weight; assay type: in vivo, NIH Swiss mice; conditions: 1.5 mg/kg oleic acid i.p., 4 hours; compound in the 0.5 mg/kg range
Procedure: FIG. 12 illustrates the effects of invention compounds for their capacity to inhibit edema associated with Acute Respiratory Distress Syndrome (ARDS). NIH Swiss mice were given an intraperitoneal injection of 1.5 mg/kg Oleic Acid of (in this example formulated in saline) and/or invention compounds.
NIH Swiss mice were given an intraperitoneal injection of 1.5 mg/kg Oleic Acid of (in this example formulated in saline) and/or invention compounds.

Row | Compound | inhibition of edema formation in VEGF-treated animals [1] | infarct area as percentage of ischemic territory (mean±SD) ([2]; 0.3 mg/kg IV bolus 60 min into reperfusion, 24 hr, vehicle 62%±7) [%] | infarct reduction with varied dosing time ([2]; dosing immediately at reperfusion or out to 3 hr later) | remaining activity at 0.5 µM ([3]; 0.5 μM, read-out: Percent Control Value at 0.5 μM) [%] | remaining activity at 5 µM ([3]; 5 μM, read-out: Percent Control Value at 5 μM) [%] | Inhibition of VEGF-induced Akt phosphorylation, time course ([4]; 5 mg/kg iv, VEGF 30, 60 or 120 min later, lung lysates) | Inhibition of VEGF-induced Akt phosphorylation, dose-response ([4]; 0.5 or 5 mg/kg iv, VEGF 60 min later, lung lysates) | blockade of Akt phosphorylation following VEGF delivery ([4]; general statement in description) | dextran-induced increase in paw volume [5] | PAF-induced increase in paw volume [6] | impact on the anti-tumor activity of IL-2 [7] | impact on IL-2 induced T-cell proliferation [8] | reduction of ARDS-induced edema [9] [%]
1 | Nc1nc(N)c2nc(-c3cccc(O)c3)c(-c3cccc(O)c3)nc2n1 [6,7-bis-(3-hydroxyphenyl)-pteridine-2,4-diamine] | inhibit edema formation in VEGF-treated animals | 35 | Equivalent infarct reductions | 47 | 5 | Inhibition of VEGF-induced Akt phosphorylation was seen at all time-points examined | at all 6,7-bis-(3-hydroxyphenyl)-pteridine-2,4-diamine doses examined | blockade of Akt phosphorylation | blocked these responses | blocked these responses |  |  | 
2 | O=C(O)c1ccccc1C(=O)Nc1ccccc1-c1cc2ccccc2[nH]1 [compound D] |  |  |  |  |  |  |  |  |  |  | no significant impact | no significant impact | 
3 | Nc1nc(N)c2nc(-c3cccc(O)c3)c(-c3cccc(O)c3)nc2n1.O=S(=O)(O)O [compound E] |  |  |  |  |  |  |  |  |  |  | no significant impact | no significant impact | > 50
